Assay: xn = mol fraction of the nth substance listed

CC[n+]1ccn(C)c1.O=S(=O)([O-])C(F)(F)F + O=S(=O)([O-])C(F)(F)F.[Li+]
101 kPa, x1 = 1
Conditions	electrical conductivity [S/m]
288.15 K	0.605
298.15 K	0.859
333.15 K	2.24

CC[n+]1ccn(C)c1.O=S(=O)([O-])C(F)(F)F + O=[N+]([O-])[O-].[Li+]
101 kPa, x1 = 1
Conditions	electrical conductivity [S/m]
288.15 K	0.605
298.15 K	0.859
333.15 K	2.24

CCCC[P+](CCCC)(CCCC)CCCC.[Br-] + OCC(O)CO
101.3 kPa, x1 = 0.333
Conditions	viscosity [mPa·s]
293.15 K	468
298.15 K	329
303.15 K	235
308.15 K	172
313.15 K	116
318.15 K	97.1
323.15 K	68.4

CC[n+]1ccn(C)c1.O=S(=O)([O-])C(F)(F)F + OCC(O)CO
100 kPa
Conditions	electrical conductivity [S/m]	viscosity [mPa·s]
293.15 K, x1 = 0.002	–	1372
293.15 K, x2 = 0.199	–	48.9
293.15 K, x2 = 0.605	–	97.9
293.15 K, x2 = 0.698	–	146.4
293.15 K, x2 = 0.962	–	968
298.15 K, x1 = 0.002	0.000274	–
298.15 K, x1 = 0.004	0.00056	–
298.15 K, x1 = 0.011	0.00141	–
298.15 K, x1 = 0.018	0.00247	–
298.15 K, x2 = 0.401	0.68	45.4
303.15 K, x2 = 0.962	–	425
313.15 K, x1 = 0.002	0.00084	–
313.15 K, x1 = 0.004	0.00176	–
313.15 K, x1 = 0.011	0.00439	–
313.15 K, x1 = 0.018	0.0079	243
313.15 K, x2 = 0.299	1.27	23.4
